The source of these data is PubChem BioAssay AID192 (DTP/NCI, 2004).

This assay relates to BDF1 mice, B16 melanoma ip, median survival T/C. Nature of the assay: NCI In Vivo Anticancer Drug Screen. Data for tumor model B16 Melanoma (intraperitoneal) in B6D2F1 (BDF1) mice. As to conditions: endpoint: median survival time, higher = longer survival. Put shortly:
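Survival or tumor size is measured after treatment of tumor-bearing mice and normalised to the vehicle-treated control group.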

[1] abbreviates: dose: 25.0 mg/kg/injection, schedule: Q01DX009 (ip), vehicle: saline with Tween-80.
The mark [2] stands for this setting: dose: 50.0 mg/kg/injection, schedule: Q01DX009 (ip), vehicle: saline with Tween-80.
Where [3] appears, read: dose: 100.0 mg/kg/injection, schedule: Q01DX009 (ip), vehicle: saline with Tween-80.
The mark [4] stands for this setting: dose: 6.25 mg/kg/injection, schedule: Q01DX009 (ip), vehicle: saline with Tween-80.
Where [5] appears, read: dose: 12.5 mg/kg/injection, schedule: Q01DX009 (ip), vehicle: saline with Tween-80.
The mark [6] stands for this setting: dose: 100.0 mg/kg/injection, schedule: Q01DX009 (ip), vehicle: Klucel (hydroxypropylcellulose) (HPC).
The mark [7] stands for this setting: dose: 200.0 mg/kg/injection, schedule: Q01DX009 (ip), vehicle: Klucel (hydroxypropylcellulose) (HPC).
Where [8] appears, read: dose: 200.0 mg/kg/injection, schedule: Q01DX009 (ip), vehicle: saline with Tween-80.

Structures are written as SMILES. Where “and” joins values, the source holds several entries; their conditions need not be identical. Equal values may be shown once. Inconclusive results and toxic doses are left out.

Consider `N=[N+]=CC(=O)CCC(NC(=O)C(CCC(=O)C=[N+]=N)NC(=O)CCC(N)C(=O)O)C(=O)O` (configuration not stated), for which the T/C (dose: 0.01 mg/kg/injection, schedule: Q01DX009 (ip), vehicle: other) was 96 % of control and 100 % of control and 106 % of control; the T/C (dose: 0.05 mg/kg/injection, schedule: Q01DX009 (ip), vehicle: saline) is 100 % of control; the T/C (dose: 0.1 mg/kg/injection, schedule: Q01DX009 (ip), vehicle: saline) is 117 % of control; the T/C (dose: 0.1 mg/kg/injection, schedule: Q01DX009 (ip), vehicle: suspension in saline) was 90 % of control; the T/C (dose: 0.2 mg/kg/injection, schedule: Q01DX009 (ip), vehicle: Klucel (hydroxypropylcellulose) (HPC)) is 90 % of control; the T/C (dose: 0.2 mg/kg/injection, schedule: Q01DX009 (ip), vehicle: suspension in saline) was 103 % of control. The T/C runs as follows: (dose: 0.4 mg/kg/injection, schedule: Q01DX009 (ip), vehicle: Klucel (hydroxypropylcellulose) (HPC)) 92 % of control; (dose: 0.4 mg/kg/injection, schedule: Q01DX009 (ip), vehicle: suspension in saline) 101 % of control; (dose: 0.5 mg/kg/injection, schedule: Q01DX009 (ip), vehicle: other) 87 % of control; (dose: 0.8 mg/kg/injection, schedule: Q01DX009 (ip), vehicle: Klucel (hydroxypropylcellulose) (HPC)) 100 % of control; (dose: 0.8 mg/kg/injection, schedule: Q01DX009 (ip), vehicle: suspension in saline) 100 % of control; (dose: 1.6 mg/kg/injection, schedule: Q01DX009 (ip), vehicle: Klucel (hydroxypropylcellulose) (HPC)) 100 % of control. Besides, the T/C is, setting by setting: (dose: 1.6 mg/kg/injection, schedule: Q01DX009 (ip), vehicle: suspension in saline) 105 % of control; (dose: 2.5 mg/kg/injection, schedule: Q04DX003 (ip), vehicle: water) 105 % of control; (dose: 5.0 mg/kg/injection, schedule: Q04DX003 (ip), vehicle: water) 105 % of control; (dose: 10.0 mg/kg/injection, schedule: Q04DX003 (ip), vehicle: other) 122 % of control; (dose: 10.0 mg/kg/injection, schedule: Q04DX003 (ip), vehicle: water) 107 % of control; (dose: 5.0 micrograms/kg/injection, schedule: Q01DX009 (ip), vehicle: water) 123 % of control. In addition, the T/C is, setting by setting: (dose: 10.0 micrograms/kg/injection, schedule: Q01DX009 (ip), vehicle: water) 94 % of control; (dose: 50.0 micrograms/kg/injection, schedule: Q01DX009 (ip), vehicle: water) 115 % of control; (dose: 100.0 micrograms/kg/injection, schedule: Q01DX009 (ip), vehicle: water) 89 % of control.

In the case of `CCCCCCCCCCCCCCCCC/C=C1\CC(=O)OC1=O`, the T/C under setting [1] is 97 % of control and 99 % of control; the T/C under setting [2] is 91 % of control and 105 % of control; the T/C under setting [3] is 92 % of control.

As to `COc1cc(Cl)c(CC(=O)c2c[nH]c3ccccc23)cc1OC`, the T/C was 100 % of control under setting [4] and 89 % of control under setting [5].

`C=CCN(C(=O)OCC)c1ccccc1`: the T/C under setting [6] was 100 % of control and the T/C under setting [7] is 97 % of control.

As to `c1ccc2[nH]c(/N=N/c3nc4ccccc4[nH]3)nc2c1`, the T/C reads like this: under setting [6], 102 % of control; under setting [7], 102 % of control; (dose: 400.0 mg/kg/injection, schedule: Q01DX009 (ip), vehicle: Klucel (hydroxypropylcellulose) (HPC)) 91 % of control.

As for `NC(N)=Nc1nc2ccccc2s1`, the T/C runs as follows: (dose: 25.0 mg/kg/injection, schedule: Q04DX003 (ip), vehicle: Klucel (hydroxypropylcellulose) (HPC)) 105 % of control; (dose: 50.0 mg/kg/injection, schedule: Q04DX003 (ip), vehicle: Klucel (hydroxypropylcellulose) (HPC)) 97 % of control; (dose: 100.0 mg/kg/injection, schedule: Q04DX003 (ip), vehicle: Klucel (hydroxypropylcellulose) (HPC)) 97 % of control.

Regarding `CCCCCCCCCCCCCCCCCC(=O)Nc1ccn(C2OC(CO)C(O)C2O)c(=O)n1` (configuration not stated), the T/C reads like this: under setting [5], 154 % of control; under setting [1], 165 % of control and 203 % of control.

For `CC(=O)NC(Cc1ccc(N(CCCl)CCCl)cc1)C(=O)O` (configuration not stated), the T/C was 109 % of control (dose: 3.13 mg/kg/injection, schedule: Q01DX009 (ip), vehicle: saline with Tween-80); 117 % of control under setting [4]; 113 % of control under setting [1].

Consider `COC(=O)C12OCC34C(CC5C(C)=C(O)C(=O)CC5(C)C3C(O)C1O)OC(=O)C(OC(=O)/C=C(\C)C(C)(C)O)C24` (configuration not stated), for which the T/C is 124 % of control (dose: 0.05 mg/kg/injection, schedule: Q01DX009 (ip), vehicle: saline with Tween-80); 150 % of control (dose: 0.1 mg/kg/injection, schedule: Q01DX009 (ip), vehicle: saline with Tween-80); 159 % of control (dose: 0.2 mg/kg/injection, schedule: Q01DX009 (ip), vehicle: saline); 152 % of control (dose: 0.4 mg/kg/injection, schedule: Q01DX009 (ip), vehicle: saline with Tween-80); 153 % of control (dose: 0.4 mg/kg/injection, schedule: Q01DX009 (ip), vehicle: saline); 172 % of control (dose: 0.8 mg/kg/injection, schedule: Q01DX009 (ip), vehicle: saline with Tween-80). Also, the T/C (dose: 1.6 mg/kg/injection, schedule: Q01DX009 (ip), vehicle: saline with Tween-80) was 161 % of control.

Regarding `NC(=O)NC1CCCC1`, the T/C was 106 % of control under setting [3]; 112 % of control under setting [8]; 102 % of control (dose: 400.0 mg/kg/injection, schedule: Q01DX009 (ip), vehicle: saline with Tween-80).

Take `O=C(Nc1ccc(Cl)cc1)c1cccnc1`: the T/C under setting [2] is 101 % of control, the T/C under setting [3] is 106 % of control and the T/C under setting [8] was 94 % of control.

For the compound `CC1=CC(=O)[C@@H](O)[C@]2(C)[C@H]3[C@@]4(O)OC[C@]35[C@H]([C@@H](C)[C@H]4O)[C@@H](O)C(=O)O[C@@H]5C[C@@H]12`, the T/C is 107 % of control (dose: 0.75 mg/kg/injection, schedule: Q01DX009 (ip), vehicle: saline); 109 % of control (dose: 1.5 mg/kg/injection, schedule: Q01DX009 (ip), vehicle: saline); 117 % of control (dose: 3.0 mg/kg/injection, schedule: Q01DX009 (ip), vehicle: saline); 108 % of control (dose: 6.0 mg/kg/injection, schedule: Q01DX009 (ip), vehicle: saline).

Turning to `C=C1C(=O)OC2C1CCC(=C)C1CC(O)C(=C)C12` (configuration not stated), the T/C runs as follows: (dose: 67.0 mg/kg/injection, schedule: Q01DX009 (ip), vehicle: saline with Tween-80) 87 % of control; under setting [3], 87 % of control.

As for `CC(=O)c1ccccc1OCC(O)CN1CCN(c2cccc(C(F)(F)F)c2)CC1` (configuration not stated), the T/C reads like this: (dose: 100.0 mg/kg/injection, schedule: Q04DX003 (ip), vehicle: saline with Tween-80) 102 % of control; (dose: 200.0 mg/kg/injection, schedule: Q04DX003 (ip), vehicle: saline with Tween-80) 93 % of control; (dose: 400.0 mg/kg/injection, schedule: Q04DX003 (ip), vehicle: saline with Tween-80) 91 % of control.

`CC1CN1C(=O)NCCCCCCNC(=O)N1CC1C` (configuration not stated): the T/C is 151 % of control (dose: 1.25 mg/kg/injection, schedule: Q01DX009 (ip), vehicle: Klucel (hydroxypropylcellulose) (HPC)); 152 % of control (dose: 1.25 mg/kg/injection, schedule: Q01DX009 (ip), vehicle: saline); 180 % of control (dose: 2.5 mg/kg/injection, schedule: Q01DX009 (ip), vehicle: saline); 158 % of control (dose: 5.0 mg/kg/injection, schedule: Q01DX009 (ip), vehicle: Klucel (hydroxypropylcellulose) (HPC)); 202 % of control (dose: 5.0 mg/kg/injection, schedule: Q01DX009 (ip), vehicle: saline).

As to `Cc1c(NCO)c(=O)n(-c2ccccc2)n1C`, the T/C is 102 % of control (dose: 100.0 mg/kg/injection, schedule: Q01DX009 (ip), vehicle: saline); 94 % of control (dose: 200.0 mg/kg/injection, schedule: Q01DX009 (ip), vehicle: saline); 91 % of control (dose: 400.0 mg/kg/injection, schedule: Q01DX009 (ip), vehicle: saline).

Consider `CNC(=O)Nc1cccc(C(F)(F)F)c1`, for which the T/C was 99 % of control (dose: 25.0 mg/kg/injection, schedule: Q01DX009 (ip), vehicle: Klucel (hydroxypropylcellulose) (HPC)); 100 % of control (dose: 50.0 mg/kg/injection, schedule: Q01DX009 (ip), vehicle: Klucel (hydroxypropylcellulose) (HPC)); 90 % of control and 112 % of control under setting [6].
